Values quoted from earlier work as cited in patent publication US20210346497A1, “Methods of Treating Cancer” (Tesaro, Inc., priority 2018, published 2021).

Tests used:
[1] = tested on: PARP activity in various cell lines
[2] = tested on: MDA-MB-436, CAPAN-1, GRANTA-519, OVCAR3, HT29, DLD-1, patient derived Ewing's sarcoma and TNBC xenograft models; settings: BRCA-1 mutant breast, BRCA-2 mutant pancreatic, ATM-mutant mantle cell lymphoma, serous ovarian, colorectal, TNBC xenografts in mice
[3] = tested on: cancer cell lines silenced for BRCA-1 or BRCA-2, or carrying BRCA-1 or BRCA-2 mutations

Question: What does the source list for Cc1ccc(S(=O)(=O)O)cc1.NC(=O)c1cccc2cn(-c3ccc([C@@H]4CCCNC4)cc3)nc12 [Niraparib, (3S)-3-[4-{7-(aminocarbonyl)-2H-indazol-2-yl}phenyl]piperidine]?
Answer: IC50 ([1]; read-out: IC50 of PARP activity in cells, PARP activity stimulated by DNA damage caused by hydrogen peroxide): ~0.004 µM; IC90 ([1]; read-out: inhibitory concentration at 90% of control (IC90) of PARP activity in cells, PARP activity stimulated by DNA damage caused by hydrogen peroxide): ~0.05 µM; activity on normal human cells (normal human cells): weak activity; cell cycle arrest (tumor cell): arrest in the G2/M phase of the cell cycle; antitumor activity in vivo [2]: strong antitumor activity; anti-proliferative activity ([3]; BRCA-1/BRCA-2 silenced or mutant cancer cell lines compared to wild type counterparts): selective anti-proliferative activity; consequence on cell cycle of BRCA-defective cells ([3]; BRCA-defective cells): cell cycle arrest in G2/M followed by apoptosis
